Measured values reported in PMC8251711 (Angewandte Chemie (International Ed. in English), 2021).

Biological target: LAT1 (Homo sapiens, UniProt Q01650)
Assay: [3H]-gabapentin uptake competition assay in LN229 cells
Format: cell-based
Conditions: read-out: IC50, [3H]-gabapentin uptake competition

Sequence of LAT1 (Q01650 whole entry): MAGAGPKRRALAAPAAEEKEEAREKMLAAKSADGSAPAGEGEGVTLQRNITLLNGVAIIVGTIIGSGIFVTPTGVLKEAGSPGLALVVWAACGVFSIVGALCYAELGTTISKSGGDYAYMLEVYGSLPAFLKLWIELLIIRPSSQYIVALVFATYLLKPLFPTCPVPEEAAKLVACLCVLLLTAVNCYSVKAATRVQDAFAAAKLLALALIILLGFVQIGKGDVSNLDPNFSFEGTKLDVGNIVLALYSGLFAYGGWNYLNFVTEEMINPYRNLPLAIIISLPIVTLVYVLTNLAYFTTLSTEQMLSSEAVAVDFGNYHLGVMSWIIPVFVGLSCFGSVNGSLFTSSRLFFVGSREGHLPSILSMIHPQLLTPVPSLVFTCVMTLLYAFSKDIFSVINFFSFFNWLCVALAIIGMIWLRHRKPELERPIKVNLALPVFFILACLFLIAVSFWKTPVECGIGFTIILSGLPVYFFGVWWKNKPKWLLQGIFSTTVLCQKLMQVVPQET
Sequence of LAT1 (P08195 102-630 partner): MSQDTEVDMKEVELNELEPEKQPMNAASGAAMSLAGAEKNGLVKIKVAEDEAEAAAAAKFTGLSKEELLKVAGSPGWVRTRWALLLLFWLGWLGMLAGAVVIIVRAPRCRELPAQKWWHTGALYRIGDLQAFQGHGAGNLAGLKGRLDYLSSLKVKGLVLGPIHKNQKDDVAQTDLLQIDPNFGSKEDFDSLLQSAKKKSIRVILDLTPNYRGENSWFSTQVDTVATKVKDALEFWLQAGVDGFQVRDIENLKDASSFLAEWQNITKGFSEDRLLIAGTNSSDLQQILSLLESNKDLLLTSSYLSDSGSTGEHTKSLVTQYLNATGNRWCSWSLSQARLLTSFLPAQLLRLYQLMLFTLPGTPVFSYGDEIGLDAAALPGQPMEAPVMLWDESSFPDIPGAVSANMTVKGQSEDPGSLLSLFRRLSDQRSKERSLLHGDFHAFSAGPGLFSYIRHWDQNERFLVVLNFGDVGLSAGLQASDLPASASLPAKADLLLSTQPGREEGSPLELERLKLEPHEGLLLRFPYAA

IC50: 29 nM
Compound: Nc1cc(COc2c(Cl)cc(C[C@H](N)C(=O)O)cc2Cl)c2oc(-c3ccccc3)nc2c1 [JPH203]
